Measurements as given in patent US20060205669A1, “G-type peptides and other agents to ameliorate atherosclerosis and other pathologies” (The Regents of the University of California, priority 2004, published 2006).

Key:
[1] = system: cynomologous monkeys; assay: Monkey HDL and LDL after oral peptide tested for monocyte chemotactic activity in human artery wall cell cultures; assay type: in vivo; details: five milligrams by stomach tube, 6 hours
Description: Five milligrams of the peptide LAEYHAK (SEQ ID NO: 8) synthesized from all D-amino acids was administered to each of four cynomologous monkeys in 2.0 mL of water by stomach tube and followed with 2.0 mL of water as a wash. Six hours later the monkeys were bled and their plasma fractionated by fast protein liquid chromatography (FPLC) and tested in human artery wall cell cultures.

[2] = system: ApoE null mice; assay: HDL paraoxonase activity in apoE null mice; assay type: in vivo; details: FIG. 16
Description: Female apoE null mice 4 months of age (n=4 per group) were administered by intraperitoneal injection either scrambled D-4F (a non-active control peptide) or D-4F at 10 μg/mouse or the peptide Ac-KWIYHLTEGSTDLRTEG-NH2 (SEQ ID NO:643) synthesized from L-amino acids (L-ApoM) at 50 μg/mouse. The mice were bled 2 or 6 hours later and their HDL isolated by FPLC and the paraoxonase activity in the HDL determined and plotted on the X-axis. Other 4-month-old female apoE null mice (n=4 per group) were administered by gastric gavage the peptide Ac-KWIYHLTEGSTDLRTEG-NH2 (SEQ ID NO:643) synthesized from L-amino acids (L-ApoM) at 100 μg/mouse (L-ApoM by gavage). The mice were bled 6 hours later and their HDL isolated by FPLC and the paraoxonase activity in the HDL determined and plotted on the X-axis.

Row | Substance | monocyte chemotactic activity with hLDL plus monkey HDL taken after peptide versus time zero ([1]; monkey HDL 50 μg/mL HDL-cholesterol, FIG. 17 panel B) | monocyte chemotactic activity induced by monkey LDL taken after peptide versus time zero ([1]; monkey LDL 100 μg/mL LDL-cholesterol, FIG. 17 panel C) | HDL paraoxonase activity ([2]; gastric gavage 100 μg/mouse, bled 6 hours later) | HDL paraoxonase activity ([2]; intraperitoneal injection 50 μg/mouse, bled 2 or 6 hours later)
1 | LAEYHAK (Synthetic peptide. Can be protected or unprotected as shown in specification.) | significantly reduced monocyte chemotactic activity | significantly less monocyte chemotactic activity |  | 
2 | Ac-KWIYHLTEGSTDLRTEG-NH2 [L-ApoM] |  |  | increased paraoxonase activity | increased paraoxonase activity
